20 compounds from US11414385B2, “Compounds and methods for treating, detecting, and identifying compounds to treat apicomplexan parasitic diseases” (The University of Chicago, priority 2015, dated 2022) can be followed below.

Assay [1] concerns T. gondii tachyzoites (RH-YFP strain). Nature of the assay: In vitro challenge assay for Toxoplasma tachyzoites (RH-YFP in HFF, fluorescence). It counts as cell-based, Toxoplasma gondii. Conditions: Toxoplasma gondii; RH-YFP; read-out: Tachy IC50. As for the experimental part: Human foreskin fibroblasts (HFF) were cultured on a flat, clear-bottomed, black 96-well plate to 90% to 100% confluence. IMDM (1×, [+] glutamine, [+] 25 mM HEPES, [+] Phenol red, 10% FBS [gibco, Denmark]) was removed from each well and replaced with IMDM-C (1×, [+] glutamine, [+] 25 mM HEPES, [−] Phenol red, 10% FBS)[Gibco, Denmark]). Type I RH parasites expressing Yellow Fluorescent Protein (RH-YFP) were lysed from host cells by double passage through a 27-gauge needle. Parasites were counted and diluted to 32,000/mL in IMDM-C. Fibroblast cultures were infected with 3200 tachyzoites of the Type I RH-YFP strain and returned to incubator at 37° C. for 1-2 hours to allow for infection. Diluted solutions of the compounds were made using IMDM-C, and 20 μl were added to each designated well, with triplicates for each condition. Controls included pyrimethamine/sulfadiazine (current standard of treatment), DMSO only, fibroblast only, and an untreated YFP gradient with 2 fold dilutions of the parasite. Cells were incubated at 37° C. for 72 hours. The plates were read using a fluorimeter (Synergy H4 Hybrid Reader, BioTek) To ascertain the amount of yellow fluorescent protein, in relative fluorescence units (RFU), as a measure of parasite burden after treatment. Compounds were not considered effective or pursued for further analysis if there were no signs of inhibition at 1 μM. Data was collected using Gen5 software and analyzed with Excel.
Protocol adapted from Fomovska, et. al. (18,19). Human foreskin fibroblasts (HFF) were cultured on a flat, clear-bottomed, black 96-well plate to 90% to 100% confluence. IMDM (1×, [+] glutamine, [+] 25 mM HEPES, [+] Phenol red, 10% FBS [gibco, Denmark]) was removed from each well and replaced with IMDM-C (1×, [+] glutamine, [+] 25 mM HEPES, [−] Phenol red, 10% FBS)[gibco, Denmark]). Type I RH parasites expressing Yellow Fluorescent Protein (RH-YFP) were lysed from host cells by double passage through a 27-gauge needle. Parasites were counted and diluted to 32,000/mL in IMDM-C. Fibroblast cultures were infected with 3200 tachyzoites of the Type I RH strain expressing Yellow Fluorescent Protein (RH-YFP) and returned to incubator at 37° C. for 1-2 hours to allow for infection (15). Various concentrations of the compounds were made using IMDM-C, and 20 μl were added to each designated well, with triplicates for each condition. Controls included pyrimethamine/sulfadiazine (current standard of treatment), 0.1% DMSO only, fibroblast only, and an untreated YFP gradient with 2 fold dilutions of the parasite. Cells were incubated at 37° C. for 72 hours. Plates were read using a fluorimeter (Synergy H4 Hybrid Reader, BioTek) to ascertain the amount of yellow fluorescent protein, in relative fluorescence units (RFU), as a measure of parasite burden after treatment. Data was collected using Gen5 software. IC50 was calculated by graphical analysis in Excel.
An initial screening assay of 10 μM, 1 μM, 100 nM, and 10 nM was performed. Compounds were not considered effective or pursued for further analysis if there were no signs of inhibition of tachyzoites at 1 μM. If compounds did appear to be effective at 1 μM, another experiment was conducted to assess effect at 1 μM, 500 nM, 250 nM, 125 nM, 62.5 nM, and 31.25 nM.
Protocol adapted from Fomovska, et. al. (Fomovska A, Huang Q, El Bissati K, Mui E J, Witola W H, Cheng G, et al. Novel N-Benzoyl-2-Hydroxybenzamide Disrupts Unique Parasite Secretory Pathway. Antimicrob Agents Chemother [Internet]. 2012 May [cited 2015 Jul. 8]; 56(5):2666-82; Fomovska A, Wood R D, Mui E, Dubey J P, Ferreira L R, Hickman M R, et al. Salicylanilide inhibitors of Toxoplasma gondii. J Med Chem. 2012 Oct. 11; 55(19):8375-91.). Human foreskin fibroblasts (HFF) were cultured on a flat, clear-bottomed, black 96-well plate to 90% to 100% confluence. […]

In assay [2] the test system is P. falciparum strains D6, TM91-C235, W2, C2B. Description: Malaria SYBR Green I-Based Fluorescence (MSF) Assay. It counts as cell-based, Plasmodium falciparum. As for the experimental part:
Testing of P. falciparum: D6 is a drug sensitive strain from Sierra Leone, C235 is a multi-drug resistant strain from Thailand, W2 is a chloroquine resistant strain from Thailand, and C2B has resistance to a variety of drugs including atovaquone.
D6 is a drug sensitive strain from Sierra Leone, C235 is a multi-drug resistant strain from Thailand, W2 is a chloroquine resistant strain from Thailand, and C2B has resistance to a variety of drugs including atovaquone. These assays were performed as described.
(§1) Compound activity against P. falciparum, a causative agent of malaria, was tested using the Malaria SYBR Green I—Based Fluorescence (MSF) Assay. This; microtiter plate drug sensitivity assay uses the presence of malarial DNA as a measure of parasitic proliferation in the presence of antimalarial drugs or experimental compounds based on modifications of previously described methods by Plouffe et al (20) and Johnson et al. As the intercalation of SYBR Green I dye and its resulting fluorescence is relative to parasite growth, a test compound that inhibits the growth of the parasite will result in a lower fluorescence.
Selected compounds were examined for activity against four strains of P. falciparum: D6 (CDC/Sierra Leone), a drug-sensitive strain readily killed by chloroquine, TM91-C235, a multi-drug resistant strain resistant to chloroquine, W2, a chloroquine resistant strain from Thailand, and C2B has resistance to a variety of drugs including atovaquone.
D6 is a drug sensitive strain from Sierra Leone, C235 is a multi-drug resistant strain from Thailand, W2 is a chloroquine resistant strain from Thailand, and C2B has resistance to a variety of drugs including atovaquone. These assays were performed using standard protocols.
as §1, with “known in the art.” for “by Plouffe et al (20) and Johnson et al.”, “fluorescence. Selected compounds were examined for activity against four strains of P. falciparum: D6 (CDC/Sierra Leone), a drugsensitive strain readily killed by chloroquine, TM91-C235, a multi-drug resistant strain resistant to chloroquine, W2, a chloroquine resistant strain from Thailand, and C2B has resistance to a variety of drugs including atovaquone.” for “fluorescence.”

Where [3] appears, read: Plasmodium falciparum, C2B strain, read-out: SYBR Green C2B IC50.
Where [4] appears, read: Plasmodium falciparum, D6 strain, read-out: Pf D6 IC50.
Setting [5] is: Plasmodium falciparum, D6 strain, read-out: SYBR Green D6 IC50.
The mark [6] stands for this setting: Plasmodium falciparum, TM91C235 strain, read-out: SYBR Green C235 IC50.
Where [7] appears, read: Plasmodium falciparum, W2 strain, read-out: SYBR Green W2 IC50.

The structures appear in SMILES notation. Where two headings read alike, the source gives them in different places.

Consider `Cc1[nH]c2c(c(=O)c1-c1ccc(Oc3ccc(Cl)c(Cl)c3)cc1)CCCC2` [JAG084, 3-(4-(3,4-Dichlorophenoxy)phenyl)-2-methyl-5,6,7,8-tetrahydroquinolin-4(1H)-one], for which the IC50 (in general, the midpoint of a concentration-inhibition curve) in assay [1] fell in the range of 0.04 to 0.08 µM.

With `Cc1[nH]c2c(c(=O)c1-c1ccc(Oc3ccc(C(=O)O)cc3)nc1)CCCC2` [JAG039, 4-((5-(2-methyl-4-oxo-1,4,5,6,7,8-hexahydroquinolin-3-yl)pyridin-2-yl)oxy)benzoic acid], the IC50 is greater than 20 µM in assay [2] (setting [3]); 9.6 µM in assay [2] (setting [4]); 9.6 µM in assay [2] (setting [5]); greater than 20 µM in assay [2] (setting [6]); greater than 20 µM in assay [2] (setting [7]).

In the case of `Cc1[nH]c2c(c(=O)c1-c1ccc(Oc3cccc(C(=O)O)c3)cc1)CCCC2` [JAG047, 3-(4-(2-methyl-4-oxo-1,4,5,6,7,8-hexahydroquinolin-3-yl)phenoxy)benzoic acid], the IC50 in assay [2] (setting [4]) turned out to be 3.75 µM.

As to `Cc1[nH]c2c(c(=O)c1-c1ccc(Oc3ccc(C(F)(F)F)cc3)cc1)CCCC2` [JAG63, 2-methyl-3-(4-(4-(trifluoromethyl)phenoxy)phenyl)-5,6,7,8-tetrahydroquinolin-4(1H)-one], the IC50 in assay [1] is 0.1 to 0.3 µM.

For the compound `O=c1[nH]c2c(c(=O)n1-c1ccc(Oc3ccccc3)cc1)CCCC2` [JAG095, 3-(4-Phenonxyphenyl)-1,2,3,4,5,6,7,8-octahydroquinazoline-2,4,dione], the 50% inhibitory concentration (IC50) in assay [1] was greater than 10 µM.

`Cc1[nH]c2cnccc2c(=O)c1-c1ccc(Oc2ccc(OC(F)(F)F)cc2)cc1` [JAG129, 3(4-(4-trifluoromethoxyphenoxy)phenyl)-2-methyl-1,7-napthyrid-4(1H)-one]: the IC50 in assay [1] came out at 0.1 µM.

Consider `CCC1CCc2c([nH]c(C)c(-c3ccc(Oc4ccc(OC(F)(F)F)cc4)cc3)c2=O)C1` (stereo not shown) [JAG121, 7-Ethyl-2-methyl-3(4-(4-trifluoromethoxyphenoxy)phenyl)-5,6,7,8-tetrahydroquinolin-4(1H)-one], for which the IC50 in assay [1] worked out at 0.1 µM.

For the compound `Cc1[nH]c2c(c(=O)c1-c1ccc(Oc3cccc(F)c3)cc1)CCCC2` [JAG069, 3-(4-(3-Fluorophenoxy)phenyl)-2-methyl-5,6,7,8-tetrahydroquinolin-4(1H)-one], the IC50 in assay [1] worked out at 0.02 µM.

Regarding `CCn1c(C)c(-c2ccc(Oc3ccccc3)cc2)c(=O)c2ccccc21` [JM10, 1-ethyl-2-methyl-3-(4-phenoxyphenyl)quinolin-4(1H)-one], the IC50 in assay [2] (setting [3]) turned out to be 6.75 µM; in assay [2] (setting [5]) it was 0.88 µM; in assay [2] (setting [6]), 4.48 µM; in assay [2] (setting [7]) it was 5.36 µM.

Regarding `Cc1[nH]c2c(c(=O)c1-c1ccc(Oc3ccc(OC(F)(F)F)cc3)cc1)CCC(C)C2` (stereo not shown) [JAG107, 3(4-(4-Trifluoromethoxyphenoxy)phenyl)-2,7-dimethyl-5,6,7,8-tetrahydroquinolin-4(1H)-one], the IC50 in assay [1] was found to be 1 µM.

In the case of `Cc1[nH]c2c(c(=O)c1-c1ccc(Oc3cc(Cl)nc(Cl)c3)cc1)CCCC2` [AS034/ JAG148, 3-{4-[(2,6-dichloropyridin-4-yl)oxy]phenyl}-2-methyl-5,6,7,8-tetrahydro-1H-quinolin-4-one], the IC50 in assay [1] lay in the range of 0.1 to 0.5 µM.

For `Cc1[nH]c2c(c(=O)c1-c1ccc(Oc3ccc(F)c(Cl)c3)cc1)CCCC2` [AS021/ JAG145, 3-[4-(3-chloro-4-fluorophenoxy)phenyl]-2-methyl-5,6,7,8-tetrahydro-1H-quinolin-4-one], the IC50 in assay [1] came out at 0.08 µM.

`Cc1[nH]c2c(c(=O)c1-c1ccc(Oc3cccc(C(F)(F)F)c3)cc1)CCCC2` [AS012/ JAG144, 2-methyl-3-(4-(3-(trifluoromethyl)phenoxy)phenyl)-5,6,7,8-tetrahydroquinolin-4(1H)-one]: in assay [1], the IC50 was determined as 0.3 µM.

Take `Cc1[nH]c2c(c(=O)c1-c1ccc(Oc3ccc(F)cc3)cc1)CCCC2` [JAG58, 3-(4-(4-fluorophenoxy)phenyl)-2-methyl-5,6,7,8-tetrahydroquinolin-4(1H)-one]: in assay [1], the 50% inhibitory concentration (IC50) was 0.04 to 0.08 µM.

For the compound `Cc1[nH]c2c(c(=O)c1-c1ccc(Oc3cc(Cl)cc(Cl)c3)cc1)CCCC2` [AS022, 3-[4-(3,5-dichlorophenoxy)phenyl]-2-methyl-5,6,7,8-tetrahydro-1H-quinolin-4(1H)-one], the half-inhibitory concentration (IC50) in assay [1] fell in the range of 0.02 to 0.04 µM.

For the compound `Cc1[nH]c2c(c(=O)c1-c1ccc(Oc3ccc4c(c3)OCO4)cc1)CCCC2` [AS032, 3-[4-(2H-1,3-benzodioxo1-5-yloxy)phenyl]-2-methyl-5,6,7,8-tetrahydro-1H-quinolin-4-one], the IC50 in assay [1] is 0.1 to 0.3 µM.

Consider `Cc1[nH]c2ccccc2c(=O)c1-c1ccc(Oc2ccc(Cl)cc2)c(O)c1` [RG38, 3-(4-(4-chlorophenoxy)-3-hydroxyphenyl)-2-methylquinolin-4(1H)-one], for which the IC50 in assay [2] (D6 strain, read-out: SYBR Green D6 IC50) is 2.88 µM; in assay [2] (setting [3]), greater than 20 µM; in assay [2] (setting [5]) it was 2.84 µM; in assay [2] (setting [6]), 13.7 µM; in assay [2] (setting [7]), 9.25 µM.

For `O=C(O)c1[nH]c2c(c(=O)c1-c1ccc(Oc3ccc(OC(F)(F)F)cc3)cc1)CCCC2` [JAG091, 3(4-(4-Trifluoromethoxyphenoxy)phenyl)-2-(carboxylate)-5,6,7,8-tetrahydroquinolin-4(1H)-one], in assay [1], the IC50 is greater than 1 µM.

With `Cc1[nH]c2ccccc2c(=O)c1-c1ccc(Oc2ccccc2)cc1` [MJM129, 2-methyl-3-(4-phenoxyphenyl)quinolin-4(1H)-one], the IC50 in assay [2] (setting [3]) was determined as 0.01 µM; in assay [2] (setting [5]), 0.03 µM; in assay [2] (setting [6]), 0.07 µM; in assay [2] (setting [7]), 0.08 µM.

Turning to `Cc1[nH]c2c(c(=O)c1-c1ccc(Oc3ccc(C(=O)O)cc3)cc1)CCCC2` [JAG046, 4-(4-(2-methyl-4-oxo-1,4,5,6,7,8-hexahydroquinolin-3-yl)phenoxy)benzoic acid], the IC50 in assay [2] (setting [4]) turned out to be 6.72 µM.
